{"source": "patent US6300501A", "about": "“Histidine-(N-benzyl glycinamide) inhibitors of protein farnesyl transferase” (Warner-Lambert Company, priority 1998, dated 2001)", "key": {"[1]": {"tested_on": "mammary and salivary carcinomas", "conditions": "daily administration; cited from earlier work"}, "[2]": {"tested_on": "H61 cells: NIH transformed 3T3 H-ras cells", "test": "Clonogenic assay (6 well plates, soft agar)", "type": "cell-based", "conditions": "312 h, colonies counted after Day 13, read-out: Clonogenic Assay IC50", "procedure,_shortened": "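Soft-agar colony formation: cells seeded in 0.3% agar top layer with 20% calf serum over a 0.6% agar base, drug or DMSO added at 4 µL per mL agar/medium. Incubated at 37 °C, 5% CO2; INT (1 mg/mL) added on day 13 to stain colonies.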"}, "[3]": {"tested_on": "ras farnesylation in ras-transformed cells", "test": "Gel shift assay", "type": "cell-based", "conditions": "ras-transformed cells, 18-hour incubation; read-out: Gel Shift (μM) MED (minimal effective dose to observe inhibition of ras farnesylation)", "procedure,_shortened": "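Ras-transformed cells (2×10^6 per condition) treated with farnesylation inhibitor at varying concentrations for 18 h. Ras immunoprecipitated from lysates with Y13-259, resolved on 14% SDS gels and detected by pan-ras Western blot with ECL, farnesylated and unfarnesylated ras separating by mobility shift.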"}, "[4]": {"tested_on": "H61 tumor cell xenografts", "test": "In vivo assay: H61 tumor xenografts in nude mice", "method": "The compound described in Example 15 was tested for its ability to inhibit the growth of H61 tumor cell xenografts in nude mice. H61 Cells are fibroblasts transformed to a malignant state by transfection with an activated mutant form of human h-ras. Ten to 30 mg fragments of H61 tumors were inoculated SC (subcutaneously) in the axial region into female nude mice with a trocar needle on day zero of the experiment. The mice were randomized to treatment groups and were then given SC injections of the compound described in Example 15 suspended in 10% cremofor/10% ethanol/80% water twice each day on Days 3-17 of the experiment. At Day 12 of the experiment, the median control tumor burden was 1958 mg as assessed by caliper measurements."}, "[5]": {"target": "T1, SF9 affinity purified rat farnesyl protein transferase (Rattus norvegicus, UniProt Q02293+Q04631)", "T1 construct": "made in house; host or cells: Sf9 insect cells (baculovirus system inferred from b7)", "T1 sequence (Q02293 whole entry, one chain of several)": "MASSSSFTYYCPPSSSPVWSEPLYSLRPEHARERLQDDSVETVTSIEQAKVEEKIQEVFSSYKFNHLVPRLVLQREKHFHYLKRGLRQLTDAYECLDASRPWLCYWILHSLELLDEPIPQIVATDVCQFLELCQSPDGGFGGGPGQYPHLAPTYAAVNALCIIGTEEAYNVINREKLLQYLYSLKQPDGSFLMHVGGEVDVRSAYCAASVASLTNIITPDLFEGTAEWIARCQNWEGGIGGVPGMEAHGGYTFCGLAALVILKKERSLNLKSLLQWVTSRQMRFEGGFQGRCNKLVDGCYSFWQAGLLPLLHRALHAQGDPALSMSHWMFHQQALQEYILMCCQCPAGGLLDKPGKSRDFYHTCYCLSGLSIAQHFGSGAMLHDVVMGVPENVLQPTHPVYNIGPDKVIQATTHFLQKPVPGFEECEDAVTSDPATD", "test": "PFT inhibitory activity (radiolabeled farnesyl pyrophosphate, streptavidin bead assay)", "type": "biochemical", "procedure,_shortened": "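HEPES pH 7.4 with 5 mM potassium phosphate (also run without), 20 μM ZnCl2, 5 mM DTT, 5 mM MgCl2, 0.1% PEG 8000; [3H]farnesyl pyrophosphate 134 nM and biotinyl-Ahe-TKCVIM peptide 0.2 μM final. Incubated 30 min at 30° C, stopped with acidic magnesium acetate/streptavidin bead buffer; bead-bound radioactivity counted.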"}, "[6]": {"tested_on": "human lung carcinoma with K-ras mutation and p53 deletion", "conditions": "nude mice; cited from earlier work"}, "[7]": {"tested_on": "EJ-1 human bladder carcinoma, HT1080 human fibrosarcoma and human colon carcinoma xenografts", "conditions": "100 mg/kg; cited from earlier work"}}, "note": "pIC50: −log10 of the molar value. Where two headings read alike, the source gives them in different places.", "data": [{"smiles": "CC[C@H](C)[C@@H](CO[C@@H](Cc1ccccc1)C(=O)N[C@@H](CCS(C)(=O)=O)C(=O)OC(C)C)NC[C@@H](N)CS", "note": "[L-744,832]", "values": [{"measurement": "tumor regression", "setting": "[1]", "value": "caused tumor regression"}]}, {"smiles": "CC(C)(CNC(=O)CN(Cc1ccc(OCc2ccccc2)cc1)C(=O)[C@H](Cc1cnc[nH]1)NC(=O)OCc1ccccc1)c1ccccc1", "note": "[Example 15, (S)-[1-{(4-Benzyloxy-benzyl)-[(2-methyl-2-phenyl-propylcarbamoyl)-methyl]-carbamoyl}-2-(3H-imidazole-4-yl)-ethyl]-carbamic Acid Benzyl Ester]", "values": [{"measurement": "pIC50", "setting": "[2]", "value": 6.72}, {"measurement": "minimal effective concentration", "setting": "[3]", "value": "0.01 to 0.05", "unit": "µM"}, {"measurement": "median tumor burden", "setting": "[4]; 125 mg/kg/injection SC twice each day, Days 3-17, Day 12, median control tumor burden 1958 mg", "value": 106, "unit": "mg"}, {"measurement": "inhibition of tumor growth", "setting": "[4]; 125 mg/kg/injection SC twice each day, Day 12", "value": 95, "unit": "%"}, {"measurement": "tumor growth delay", "setting": "[4]; 125 and 78 mg/kg/injection dose levels", "value": "tumor growth delay also consistent with significant inhibition of tumor growth"}, {"measurement": "tolerability / host toxicity", "setting": "[4]; 125 and 78 mg/kg/injection dose levels, nude mice", "value": "well-tolerated with minimal or no host toxicity"}, {"measurement": "IC50", "setting": "[5]; HEPES buffer pH 7.4, without 5 mM potassium phosphate, read-out: IC50 (μM) Hepes", "value": 0.12, "unit": "µM"}, {"measurement": "IC50", "setting": "[5]; HEPES buffer pH 7.4 containing 5 mM potassium phosphate, read-out: IC50 (μM) 5 mM K3 PO4 -2", "value": 0.007, "unit": "µM"}]}, {"smiles": "CSCC[C@H](NC(=O)c1ccc(NC[C@@H](N)CS)cc1-c1ccccc1)C(=O)O", "note": "[FTI276]", "values": [{"measurement": "tumor growth", "setting": "[6]", "value": "selectively block tumor growth"}]}, {"smiles": "COC(=O)[C@H](CCSC)NC(=O)[C@H](/C=C\\[C@@H](/C=C/[C@@H](N)CS)C(C)C)Cc1ccccc1", "note": "[Example B1086]", "values": [{"measurement": "tumor growth", "setting": "[7]", "value": "inhibit tumor growth"}]}]}
